Consider 20 compounds from patent publication EP2928504B1, “PROTEIN-POLYMER-DRUG CONJUGATES” (Mersana Therapeutics, Inc., priority 2012, dated 2014).

Where two headings read alike, the source gives them in different places.

Among the test systems are NCI-N87; HCT15; MCF7.
What all share (assay): Cell viability assay (Cell Titer-Glo)
Common to all, as to format: cell-based
(In ATP-based viability assays light output follows the ATP content of the culture.)

The subject of the next experiment is BT474. As to conditions: Homo sapiens, BT-474, 72 h.
Another experiment concerns SKBR3. As to conditions: Homo sapiens, SK-BR-3, 72 h.
The mark [1] stands for this setting: Homo sapiens, NCI-N87, 72 h, Table VIII, drug compounds, read-out: N87 IC50.
Setting [2] is: Homo sapiens, HCT-15, 72 h, Table VIII, drug compounds, read-out: HCT15 IC50.
Setting [3] is: Homo sapiens, MCF7, 72 h, Table VIII, drug compounds, read-out: MCF7 IC50.
[4] abbreviates: Table VIII, drug compounds, read-out: BT474 IC50.
[5] abbreviates: Table VIII, drug compounds, read-out: SKBR3 IC50.

Protocol for BT474: (§1) PBRM-drug polymer conjugates were evaluated for their tumor viability using Cell Titer-Glo (Promega Corp). Cells were plated in black walled 96-well plate and allowed to adhere overnight at 37°C in a humidified atmosphere of 5% CO2. HER2 expressing cells SKBR3, BT474, NCI-N87 and cells expressing low levels of HER2-MCF7 were plated at a density of 5,000 cells per well. The next day the medium was replaced with 50 µL fresh medium and 50 µL of 2x stocks of PBRM-drug polymer conjugate, drug polymer conjugate or drug were added to appropriate wells, mixed and incubated for 72 h. Cell Titer-Glo reagent was added to the wells at room temperature and the luminescent signal was measured after 10 min using a SpectraMax M5 plate reader (Molecular Devices). Dose response curves were generated using SoftMax Pro software. IC50 values were determined from four-parameter curve fitting.
Protocol for MCF7: as §1
Protocol for NCI-N87: as §1
Protocol for SKBR3: as §1

By IC50 is commonly meant the midpoint of a concentration-inhibition curve. With `CCC(C)C(C(CC(=O)N1CCCC1C(OC)C(C)C(=O)NC(Cc1ccccc1)C(=O)NCCN)OC)N(C)C(=O)C(NC(=O)C(C(C)C)N(C)C)C(C)C` (stereo not shown), the half-inhibitory concentration (IC50) with NCI-N87 (setting [1]) turned out to be 0.89 nM.

As to `CCC(C)C(C(CC(=O)N1CCCC1C(OC)C(C)C(=O)NC(Cc1ccccc1)C(=O)NCC(C)O)OC)N(C)C(=O)C(NC(=O)C(C(C)C)N(C)C)C(C)C` (stereo not shown) [drawing 771], the IC50 with HCT15 (setting [2]) was found to be 31.8 nM; in the experiment with NCI-N87 (setting [1]) it was 0.69 nM; in the experiment on MCF7 (setting [3]) it was 1.88 nM; with BT474 (setting [4]), 1.27 nM; in the experiment with SKBR3 (setting [5]), 0.44 nM.

As to `COc1cc2cc(C(=O)N3C[C@@H](CCl)c4c3cc(OC(=O)N(C)CCO)c3ccccc43)[nH]c2c(OC)c1OC`, the IC50 in the experiment on HCT15 (setting [2]) turned out to be 100 nM; with NCI-N87 (setting [1]), 30 nM; with MCF7 (setting [3]), 100 nM; in the experiment on BT474 (setting [4]), 68 nM; with SKBR3 (setting [5]) it was 21.5 nM.

`CCCO[C@H](C[C@H](C(C)C)N(CCC)C(=O)[C@@H](NC(=O)[C@H]1CCCCN1C)[C@@H](C)CC)c1nc(C(=O)N[C@@H](Cc2ccc(O)cc2)C[C@H](C)C(=O)OC)cs1` [drawing 786 (R43 = H, R78 = -OCH3)]: the half-maximal inhibitory concentration (IC50) in the experiment on MCF7 (setting [3]) was 3.02 nM; in the experiment with SKBR3 (setting [5]), 0.71 nM.

Consider `CCC(C)C(C(CC(=O)N1CCCC1C(OC)C(C)C(=O)NC(Cc1ccccc1)C(=O)NCCCOC(=O)C1CCCN1)OC)N(C)C(=O)C(NC(=O)C(C(C)C)N(C)C)C(C)C` (stereo not shown), for which the IC50 in the experiment with HCT15 (setting [2]) was 85.7 nM; in the experiment on NCI-N87 (setting [1]), 1.51 nM; in the experiment with MCF7 (setting [3]), 3.3 nM; in the experiment with BT474 (setting [4]), 3.5 nM; with SKBR3 (setting [5]), 0.88 nM.

In the case of `COc1cc2cc(C(=O)N3C[C@@H](CCl)c4c3cc(OC(=O)CCN)c3ccccc43)[nH]c2c(OC)c1OC`, the half-maximal inhibitory concentration (IC50) in the experiment with HCT15 (setting [2]) turned out to be 2.5 nM; in the experiment on MCF7 (setting [3]), 1.4 nM; in the experiment on BT474 (setting [4]), 6.54 nM; in the experiment on SKBR3 (setting [5]), 2.07 nM.

Take `COc1cc2cc(C(=O)N3C[C@@H](CCl)c4c3cc(OC(=O)[C@@H](N)C(C)C)c3ccccc43)[nH]c2c(OC)c1OC`: the IC50 with NCI-N87 (setting [1]) worked out at 0.96 nM; with BT474 (setting [4]), 3.47 nM; with SKBR3 (setting [5]) it was 0.95 nM.

As for `CCCO[C@H](C[C@H](C(C)C)N(CCC)C(=O)[C@@H](NC(=O)[C@H]1CCCCN1C)[C@@H](C)CC)c1nc(C(=O)N[C@@H](Cc2ccc(OC(=O)NCCCCN)cc2)C[C@H](C)C(=O)O)cs1`, the IC50 in the experiment on HCT15 (setting [2]) was determined as 4.6 nM; in the experiment on NCI-N87 (setting [1]), 0.24 nM; in the experiment with MCF7 (setting [3]), 0.68 nM; in the experiment on BT474 (setting [4]), 0.1 nM; in the experiment on SKBR3 (setting [5]) it was 0.08 nM.

As to `CCC(C)C(C(CC(=O)N1CCCC1C(OC)C(C)C(=O)NC(Cc1ccccc1)C(=O)OC)OC)N(C)C(=O)C(NC(=O)C(C(C)C)N(C)C)C(C)C` (stereo not shown) [drawing 761 (R42 = -CH3)], the half-maximal inhibitory concentration (IC50) in the experiment with HCT15 (setting [2]) is 0.41 nM; in the experiment on NCI-N87 (setting [1]) it was 0.03 nM; in the experiment on MCF7 (setting [3]), 0.27 nM; in the experiment with BT474 (setting [4]), 0.09 nM.

On to `CCCO[C@H](C[C@H](C(C)C)N(CCC)C(=O)[C@@H](NC(=O)[C@H]1CCCCN1C)[C@@H](C)CC)c1nc(C(=O)N[C@@H](Cc2ccc(O)cc2)C[C@H](C)C(=O)O)cs1` [drawing 786 (R43 = H, R78 = -OH)], for which the IC50 in the experiment with HCT15 (setting [2]) amounted to 0.29 nM; in the experiment on NCI-N87 (setting [1]) it was 0.1 nM; in the experiment with BT474 (setting [4]), 0.04 nM; in the experiment on SKBR3 (setting [5]) it was 0.06 nM.

For `CCC(C)C(C(CC(=O)N1CCCC1C(OC)C(C)C(=O)NC(Cc1ccccc1)C(=O)OCCN)OC)N(C)C(=O)C(NC(=O)C(C(C)C)N(C)C)C(C)C` (stereo not shown), the IC50 with NCI-N87 (setting [1]) was determined as 0.89 nM.

Regarding `COc1cc2cc(C(=O)N3C[C@@H](CCl)c4c3cc(OC(=O)N3CCN(CCN)CC3)c3ccccc43)[nH]c2c(OC)c1OC`, the IC50 in the experiment with HCT15 (Homo sapiens, HCT-15, 72 h, read-out: HCT15 IC50, Table VIII, drug compounds) stood at 68 nM; in the experiment with NCI-N87 (Homo sapiens, NCI-N87, 72 h, read-out: N87 IC50, Table VIII, drug compounds) it was 77 nM; in the experiment on MCF7 (Homo sapiens, MCF7, 72 h, read-out: MCF7 IC50, Table VIII, drug compounds) it was 100 nM; in the experiment on BT474 (read-out: BT474 IC50, Table VIII, drug compounds), 100 nM; with SKBR3 (read-out: SKBR3 IC50, Table VIII, drug compounds) it was 100 nM.

Turning to `CCC(C)C(C(CC(=O)N1CCCC1C(OC)C(C)C(=O)NC(Cc1ccccc1)C(=O)NO)OC)N(C)C(=O)C(NC(=O)C(C(C)C)N(C)C)C(C)C` (stereo not shown) [drawing 765 (R40 = -OH)], the results for the IC50 in the experiment with MCF7 (setting [3]), in the experiment with BT474 (setting [4]) and in the experiment with SKBR3 (setting [5]) were 39 nM, 20.6 nM and 12 nM, respectively.

With `COc1cc2cc(C(=O)N3C[C@@H](CCl)c4c3cc(O)c3ccccc43)[nH]c2c(OC)c1OC` [drawing 780 (R91 = H)], the half-inhibitory concentration (IC50) in the experiment with HCT15 (setting [2]) was 1.75 nM; in the experiment on MCF7 (setting [3]), 0.99 nM; with BT474 (setting [4]), 3.7 nM; in the experiment on SKBR3 (setting [5]), 1.05 nM.

For `CCCO[C@H](C[C@H](C(C)C)N(CCC)C(=O)[C@@H](NC(=O)[C@H]1CCCCN1C)[C@@H](C)CC)c1nc(C(=O)N[C@@H](Cc2ccc(O)cc2)C[C@H](C)C(=O)OCCCN)cs1`, in the experiment with HCT15 (setting [2]), the half-maximal inhibitory concentration (IC50) turned out to be 23 nM.

In the case of `CCC(C)C(C(CC(=O)N1CCCC1C(OC)C(C)C(=O)NC(Cc1ccccc1)C(N)=O)OC)N(C)C(=O)C(NC(=O)C(C(C)C)N(C)C)C(C)C` (stereo not shown) [drawing 765 (R40 = H)], the IC50 turned out to be 1.78 nM in the experiment on MCF7 (setting [3]) and 0.32 nM in the experiment with SKBR3 (setting [5]).

Take `CCC(C)C(C(CC(=O)N1CCCC1C(OC)C(C)C(=O)NC(Cc1ccccc1)C(=O)NCC(C)O)OC)N(C)C(=O)C(NC(=O)C(C(C)C)N(C)C)C(C)C` (stereo not shown) [drawing 772]: the IC50 amounted to 32.4 nM in the experiment on HCT15 (Table VIII, drug compounds, 72 h, read-out: HCT15 IC50); 0.78 nM in the experiment on NCI-N87 (Table VIII, drug compounds, 72 h, read-out: N87 IC50); 2.06 nM in the experiment with MCF7 (Table VIII, drug compounds, 72 h, read-out: MCF7 IC50).

In the case of `CCCO[C@H](C[C@H](C(C)C)N(CCC)C(=O)[C@@H](NC(=O)[C@H]1CCCCN1C)[C@@H](C)CC)c1nc(C(=O)N[C@@H](Cc2ccc(O)cc2)C[C@H](C)C(N)=O)cs1` [drawing 786 (R43 = H, R78 = -NH2)], the IC50 was 3.2 nM in the experiment on NCI-N87 (setting [1]), 3.3 nM in the experiment with MCF7 (setting [3]), 1.35 nM with BT474 (setting [4]) and 1.6 nM with SKBR3 (setting [5]).

For the compound `COc1cc2cc(C(=O)N3C[C@@H](CCl)c4c3cc(OC(=O)[C@@H]3CCCN3)c3ccccc43)[nH]c2c(OC)c1OC`, the IC50 with HCT15 (setting [2]) was 1.53 nM; with NCI-N87 (setting [1]), 0.93 nM; with BT474 (setting [4]), 4.55 nM; in the experiment with SKBR3 (setting [5]), 1.34 nM.

As to `CCC(C)C(C(CC(=O)N1CCCC1C(OC)C(C)C(=O)NC(C)C(O)c1ccccc1)OC)N(C)C(=O)C(NC(=O)C(C(C)C)N(C)C)C(C)C` (stereo not shown) [drawing 777 (R90 = -H)], the figures for the IC50 with HCT15 (setting [2]) and in the experiment with NCI-N87 (setting [1]) were 10.1 nM and 0.24 nM, respectively.
